This is an account of results in ChEMBL document CHEMBL3621192, “Novel anti-HIV-1 NNRTIs based on a pyrazolo[4,3-d]isoxazole backbone scaffold: design, synthesis and insights into the molecular basis of action” (Medchemcomm, 2014).

The subject of data set [1] is Human immunodeficiency virus 1. Nature of the data set: Antiviral activity against HIV1 RF infected in CEM-SS cells assessed as inhibition of virus-induced cytopathic effect by MTS assay. In kind it is functional, organism-based. The settings on record: Human immunodeficiency virus 1, RF. For orientation: Cytopathic effects are the visible damage that an infection or toxin causes in cultured cells.

For data set [2], the system named is Human immunodeficiency virus 1. Nature of the data set: Antiviral activity against HIV1 3B infected in MT4 cells assessed as inhibition of virus-induced cytopathic effect by MTT assay. It counts as functional, organism-based. The conditions noted are these: Human immunodeficiency virus 1, 3B.
Data set [3] concerns the target Human immunodeficiency virus type 1 reverse transcriptase (Human immunodeficiency virus 1, UniProt Q72547). Nature of the data set: Inhibition of HIV1 recombinant reverse transcriptase assessed as incorporation of [32P]GTP into poly(rC).oligo(dG) template primer.
Data set [4] can be described thus: Cytotoxicity against human MT4 cells by MTT assay. It counts as cell-based. For orientation: Tetrazolium assays rely on reduction of a dye to a coloured formazan, in cell work by metabolically active cells.
Data set [5] in a line: Therapeutic index, ratio of CC50 for human MT4 cells to EC50 for HIV1 3B infected in MT4 cells. In kind it is cell-based. The settings on record: read-out: Ratio CC50/EC50.
A short description of data set [6]: Cytotoxicity against human CEM-SS cells by MTS assay. It counts as cell-based.
Data set [7] is described as follows: Therapeutic index, ratio of CC50 for human CEM-SS cells to EC50 for HIV1 RF infected in CEM-SS cells. The conditions noted are these: read-out: Ratio CC50/EC50. It counts as cell-based.
A short description of data set [8]: Metabolic stability in rat plasma assessed as half life. It counts as ADME, cell-free.

The term EC50 denotes the midpoint of the concentration-response curve. As usually defined, the IC50 is the concentration needed to halve the response being measured. By CC50 is commonly meant the concentration giving 50% cytotoxicity. Lower therefore signals harm at low concentration. For orientation: half-life means how long it takes for the measured level to halve. As for `NC(=S)N1Nc2onc(-c3ccccc3)c2C1c1ccc(Cl)cc1` (stereo unspecified), the EC50 is 0.78 nM in data set [1] and 0.28 nM in data set [2]. The IC50 in data set [3] worked out at 0.037 nM. The CC50 came out at 340 nM in data set [4] and 360 nM in data set [6]. Also, the selectivity ratio in data set [5] came to 1210; in data set [7] it was 462. In addition, in data set [8], the half-life is 2.2 h.
`Cc1nc(N2Nc3onc(-c4ccccc4)c3C2c2ccc(Cl)cc2)sc1/N=N/c1ccccc1` (stereo unspecified): the EC50 in data set [1] turned out to be 0.54 nM; in data set [2], 0.3 nM. For the same compound, the IC50 in data set [3] amounted to 0.019 nM. In addition, the figures for the CC50 in data set [4] and in data set [6] were 260 nM and 450 nM, respectively. The selectivity ratio came out at 867 in data set [5] and 833 in data set [7]. Besides, the half-life in data set [8] came out at 4.42 h.
In the case of `Cc1ccc(/N=N/c2sc(N3Nc4onc(-c5ccccc5)c4C3c3ccc(Cl)cc3)nc2C)cc1` (stereo unspecified), the EC50 in data set [1] came to 0.25 nM; in data set [2], 0.55 nM. Besides, the IC50 in data set [3] amounted to 0.027 nM. For the same compound, the CC50 in data set [4] amounted to 450 nM; in data set [6] it was 250 nM. For the same compound, the selectivity ratio in data set [5] is 818; in data set [7], 1000. Moreover, in data set [8], the half-life is 5.72 h.
As to `Cc1nc(N2Nc3onc(-c4ccccc4)c3C2c2ccc(Cl)cc2)sc1/N=N/c1ccc(Cl)cc1` (stereo unspecified), the EC50 in data set [1] worked out at 0.36 nM; in data set [2], 0.46 nM. Besides, in data set [3], the IC50 turned out to be 0.035 nM. For the same compound, the results for the CC50 in data set [4] and in data set [6] were 340 nM and 330 nM, respectively. The selectivity ratio was 739 in data set [5] and 917 in data set [7]. In addition, in data set [8], the half-life came to 7.57 h.
With `Cc1nc(N2Nc3onc(-c4ccccc4)c3C2c2ccc(Cl)cc2)sc1/N=N/c1ccc(Br)cc1` (stereo unspecified), the EC50 in data set [1] is 0.34 nM; in data set [2], 0.27 nM. For the same compound, in data set [3], the IC50 was found to be 0.016 nM. Moreover, the figures for the CC50 in data set [4] and in data set [6] were 390 nM and 140 nM, respectively. For the same compound, the selectivity ratio in data set [5] came to 1440; in data set [7] it was 412. Also, the half-life in data set [8] worked out at 4.07 h.
Turning to `COc1ccc(/N=N/c2sc(N3Nc4onc(-c5ccccc5)c4C3c3ccc(Cl)cc3)nc2C)cc1` (stereo unspecified), the EC50 in data set [1] worked out at 0.35 nM; in data set [2], 0.44 nM. For the same compound, the IC50 in data set [3] was 0.036 nM. Moreover, the half-maximal cytotoxic concentration (CC50) stood at 460 nM in data set [4] and 340 nM in data set [6]. Also, the figures for the selectivity ratio in data set [5] and in data set [7] were 1050 and 971, respectively. The half-life in data set [8] was determined as 3.9 h.
Take `Cc1nc(N2Nc3onc(-c4ccccc4)c3C2c2ccc(Cl)cc2)sc1/N=N/c1ccc([N+](=O)[O-])cc1` (stereo unspecified): the EC50 is 0.25 nM in data set [1] and 0.18 nM in data set [2]. Further, the IC50 in data set [3] stood at 0.027 nM. Further, the CC50 in data set [4] stood at 280 nM; in data set [6], 250 nM. Further, the values for the selectivity ratio in data set [5] and in data set [7] were 1560 and 1000, respectively. Further, in data set [8], the half-life stood at 6.08 h.
As to `Cc1csc(N2Nc3onc(-c4ccccc4)c3C2c2ccc(Cl)cc2)n1` (stereo unspecified), the EC50 turned out to be 0.47 nM in data set [1] and 0.35 nM in data set [2]. Besides, the IC50 in data set [3] was found to be 0.046 nM. Also, the CC50 in data set [4] amounted to 230 nM; in data set [6] it was 440 nM. The selectivity ratio in data set [5] came out at 657; in data set [7], 936. Further, the half-life in data set [8] is 5.72 h.
On to `N/N=C(\N)N1Nc2onc(-c3ccccc3)c2C1c1ccc(Cl)cc1` (stereo unspecified), for which the EC50 amounted to 0.46 nM in data set [1] and 0.29 nM in data set [2]. Moreover, the IC50 in data set [3] was found to be 0.018 nM. Further, the CC50 worked out at 170 nM in data set [4] and 340 nM in data set [6]. Besides, the selectivity ratio in data set [5] came to 586; in data set [7] it was 739. Further, the half-life in data set [8] amounted to 4.57 h.
Regarding `CC1=C(/N=N/c2ccccc2)N=C(N2Nc3onc(-c4ccccc4)c3C2c2ccc(Cl)cc2)NN1` (stereo unspecified), the EC50 was determined as 0.44 nM in data set [1] and 0.33 nM in data set [2]. Further, the IC50 in data set [3] turned out to be 0.045 nM. Moreover, the CC50 is 450 nM in data set [4] and 230 nM in data set [6]. Also, the selectivity ratio in data set [5] turned out to be 1360; in data set [7], 523. The half-life in data set [8] came out at 2.05 h.
With `CC1=C(/N=N/c2ccc(C)cc2)N=C(N2Nc3onc(-c4ccccc4)c3C2c2ccc(Cl)cc2)NN1` (stereo unspecified), the EC50 turned out to be 0.43 nM in data set [1] and 0.49 nM in data set [2]. The IC50 in data set [3] was 0.019 nM. The CC50 in data set [4] stood at 330 nM; in data set [6] it was 360 nM. Besides, the selectivity ratio in data set [5] was determined as 673; in data set [7], 837. Further, the half-life in data set [8] was 2.57 h.
Regarding `CC1=C(/N=N/c2ccc(Cl)cc2)N=C(N2Nc3onc(-c4ccccc4)c3C2c2ccc(Cl)cc2)NN1` (stereo unspecified), the EC50 in data set [1] is 0.67 nM; in data set [2], 0.37 nM. Further, the IC50 in data set [3] came out at 0.028 nM. Moreover, the CC50 is 450 nM in data set [4] and 270 nM in data set [6]. The selectivity ratio in data set [5] came to 1220; in data set [7] it was 403. For the same compound, the half-life in data set [8] turned out to be 4.05 h.
On to `O=C1Nc2ccc(Cl)cc2[C@@](C#CC2CC2)(C(F)(F)F)O1` [EFAVIRENZ], for which the EC50 worked out at 0.92 nM in data set [1] and 0.98 nM in data set [2]. Further, the CC50 amounted to 320 nM in data set [4] and 550 nM in data set [6]. Also, the half-life in data set [8] was 1.48 h.
